Results published in patent publication US6358885B1, “Substituted phenylheterocyclic herbicides” (Mississippi State University, priority 1992, dated 2002).

Legend:
barley = assay: Test B preemergence/postemergence greenhouse plant response rating 0 to 10; format: in vivo, Hordeum vulgare; details: 0 to 10 scale
Procedure, shortened: (§1)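 Postemergence treatment of plants two to eighteen cm tall ran alongside preemergence treatment of planted seed, each using compound in a non-phytotoxic solvent.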

bedstraw = assay: as above; format: in vivo, Galium aparine; details: 0 to 10 scale
Procedure, shortened: as §1

blackgrass = assay: as above; format: in vivo, Alopecurus myosuroides; details: 0 to 10 scale
Procedure, shortened: as §1

cotton = assay: as above; format: in vivo, Gossypium hirsutum; details: 0 to 10 scale
Procedure, shortened: as §1

lambsquarters = assay: as above; format: in vivo, Chenopodium album; details: 0 to 10 scale
Procedure, shortened: as §1

sorghum [1] = assay: as above; format: in vivo, Sorghum bicolor; details: 0 to 10 scale
Procedure, shortened: as §1

sugar beet = assay: as above; format: in vivo, Beta vulgaris; details: 0 to 10 scale
Procedure, shortened: as §1

wheat [2] = assay: as above; format: in vivo, Triticum aestivum; details: 0 to 10 scale
Procedure, shortened: as §1

wild oat [3] = assay: as above; format: in vivo, Avena fatua; details: 0 to 10 scale
Procedure, shortened: as §1

crabgrass = assay: Test C preemergence/postemergence greenhouse plant response rating 0 to 100; format: in vivo, Digitaria sanguinalis; details: POSTEMERGENCE; for Plant response rating, Crabgrass: 0 to 100 scale
Procedure, shortened: (§2)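 Compounds in non-phytotoxic solvent applied preemergence to sandy loam one day after planting, postemergence at the 1–4 leaf stage, or to ~2.5 cm floodwater over silt loam.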

downy brome = assay: as above; format: in vivo, Bromus tectorum; details: POSTEMERGENCE; for Plant response rating Downy Brome: 0 to 100 scale
Procedure, shortened: as §2

rape = assay: as above; format: in vivo, Brassica napus; details: POSTEMERGENCE; for Plant response rating, Rape: 0 to 100 scale
Procedure, shortened: as §2

ryegrass = assay: as above; format: in vivo, Lolium multiflorum; details: POSTEMERGENCE; for Plant response rating Ryegrass: 0 to 100 scale
Procedure, shortened: as §2

sorghum [4] = assay: as above; format: in vivo, Sorghum bicolor; details: POSTEMERGENCE; for Plant response rating, Sorghum: 0 to 100 scale
Procedure, shortened: as §2

wheat [5] = assay: as above; format: in vivo, Triticum aestivum; details: POSTEMERGENCE; for Plant response rating, Wheat: 0 to 100 scale
Procedure, shortened: as §2

wild buckwheat = assay: as above; format: in vivo, Polygonum convolvulus; details: POSTEMERGENCE; for Plant response rating, Wild buckwheat: 0 to 100 scale
Procedure, shortened: as §2

wild oat [6] = assay: as above; format: in vivo, Avena fatua; details: POSTEMERGENCE; for Plant response rating, Wild oat: 0 to 100 scale
Procedure, shortened: as §2

barnyardgrass = assay: Test C flood test plant response rating 0 to 100; format: in vivo, Echinochloa crus-galli; details: for Plant response rating Barnyardgrass 2: flood test species listed under POSTEMERGENCE, 0 to 100 scale
Procedure, shortened: as §2

Q: CCC(C)Oc1cc(-c2nn3c(c2Cl)CCCC3)c(F)cc1Cl (centres unmarked) [Compound 48] was tested. Which “Plant response rating, Barley” value (barley; POSTEMERGENCE, Rate 50 g/ha) did it give?
A: The value was 7.

Q: What about the “Plant response rating, Barley” value (barley; POSTEMERGENCE, Rate 200 g/ha) of the same compound?
A: Its value is 5.

Q: And the “Plant response rating, Barley” value (barley; PREEMERGENCE, Rate 50 g/ha)?
A: The value was 0.

Q: And the “Plant response rating, Barley” value (barley; Rate 200 g/ha, PREEMERGENCE)?
A: The value was 0.

Q: And the “Plant response rating, Bedstraw” value (bedstraw; POSTEMERGENCE, Rate 50 g/ha)?
A: Its value is 9.

Q: What about the “Plant response rating, Bedstraw” value (bedstraw; POSTEMERGENCE, Rate 200 g/ha) of the same compound?
A: Its value is 9.

Q: And the “Plant response rating, Bedstraw” value (bedstraw; PREEMERGENCE, Rate 50 g/ha)?
A: The value was 3.

Q: What about the “Plant response rating, Bedstraw” value (bedstraw; Rate 200 g/ha, PREEMERGENCE) of the same compound?
A: The value was 9.

Q: What about the “Plant response rating, Blackgrass” value (blackgrass; POSTEMERGENCE, Rate 50 g/ha) of the same compound?
A: Its value is 6.

Q: What about the “Plant response rating, Blackgrass” value (blackgrass; POSTEMERGENCE, Rate 200 g/ha) of the same compound?
A: Its value is 6.

Q: What about the “Plant response rating, Blackgrass” value (blackgrass; PREEMERGENCE, Rate 50 g/ha) of the same compound?
A: The value was 0.

Q: And the “Plant response rating, Blackgrass” value (blackgrass; Rate 200 g/ha, PREEMERGENCE)?
A: Its value is 5.

Q: And the “Plant response rating, Cotton” value (cotton; POSTEMERGENCE, Rate 50 g/ha)?
A: The value was 10.

Q: And the “Plant response rating, Cotton” value (cotton; POSTEMERGENCE, Rate 200 g/ha)?
A: The value was 10.

Q: What about the “Plant response rating, Cotton” value (cotton; PREEMERGENCE, Rate 50 g/ha) of the same compound?
A: Its value is 0.

Q: What about the “Plant response rating, Cotton” value (cotton; Rate 200 g/ha, PREEMERGENCE) of the same compound?
A: Its value is 9.

Q: What about the “Plant response rating, Lambsquarter” value (lambsquarters; POSTEMERGENCE, Rate 50 g/ha) of the same compound?
A: Its value is 10.

Q: What about the “Plant response rating, Lambsquarter” value (lambsquarters; PREEMERGENCE, Rate 50 g/ha) of the same compound?
A: Its value is 10.

Q: What about the “Plant response rating, Lambsquarter” value (lambsquarters; Rate 200 g/ha, POSTEMERGENCE) of the same compound?
A: The value was 10.

Q: And the “Plant response rating, Lambsquarter” value (lambsquarters; Rate 200 g/ha, PREEMERGENCE)?
A: Its value is 10.

Q: What about the “Plant response rating, Sorghum” value (sorghum [1]; POSTEMERGENCE, Rate 50 g/ha) of the same compound?
A: The value was 4.

Q: And the “Plant response rating, Sorghum” value (sorghum [1]; PREEMERGENCE, Rate 50 g/ha)?
A: Its value is 0.

Q: What about the “Plant response rating, Sorghum” value (sorghum [1]; Rate 200 g/ha, POSTEMERGENCE) of the same compound?
A: The value was 6.

Q: And the “Plant response rating, Sorghum” value (sorghum [1]; Rate 200 g/ha, PREEMERGENCE)?
A: The value was 1.

Q: What about the “Plant response rating, Sugar beet” value (sugar beet; POSTEMERGENCE, Rate 50 g/ha) of the same compound?
A: Its value is 10.

Q: And the “Plant response rating, Sugar beet” value (sugar beet; PREEMERGENCE, Rate 50 g/ha)?
A: The value was 9.

Q: What about the “Plant response rating, Sugar beet” value (sugar beet; Rate 200 g/ha, POSTEMERGENCE) of the same compound?
A: Its value is 10.

Q: And the “Plant response rating, Sugar beet” value (sugar beet; Rate 200 g/ha, PREEMERGENCE)?
A: Its value is 10.

Q: What about the “Plant response rating, Wheat” value (wheat [2]; POSTEMERGENCE, Rate 50 g/ha) of the same compound?
A: The value was 5.

Q: And the “Plant response rating, Wheat” value (wheat [2]; PREEMERGENCE, Rate 50 g/ha)?
A: The value was 0.

Q: And the “Plant response rating, Wheat” value (wheat [2]; Rate 200 g/ha, POSTEMERGENCE)?
A: The value was 6.

Q: What about the “Plant response rating, Wheat” value (wheat [2]; Rate 200 g/ha, PREEMERGENCE) of the same compound?
A: Its value is 2.

Q: What about the “Plant response rating, Wild oat” value (wild oat [3]; POSTEMERGENCE, Rate 50 g/ha) of the same compound?
A: The value was 4.

Q: What about the “Plant response rating, Wild oat” value (wild oat [3]; PREEMERGENCE, Rate 50 g/ha) of the same compound?
A: The value was 0.

Q: And the “Plant response rating, Wild oat” value (wild oat [3]; Rate 200 g/ha, POSTEMERGENCE)?
A: The value was 6.

Q: What about the “Plant response rating, Crabgrass” value (crabgrass; 62 g/ha) of the same compound?
A: The value was 30.

Q: And the “Plant response rating, Crabgrass” value (crabgrass; 250 g/ha)?
A: The value was 40.

Q: And the “Plant response rating (0 to 100), Crabgrass” value (crabgrass; Rate 4 g/ha)?
A: The value was 10.

Q: And the “Plant response rating (0 to 100), Crabgrass” value (crabgrass; Rate 16 g/ha)?
A: The value was 20.

Q: What about the “Plant response rating Downy Brome” value (downy brome; 62 g/ha) of the same compound?
A: The value was 40.

Q: And the “Plant response rating Downy Brome” value (downy brome; 250 g/ha)?
A: The value was 70.

Q: What about the “Plant response rating (0 to 100), Downy Brome” value (downy brome; Rate 4 g/ha) of the same compound?
A: The value was 0.

Q: What about the “Plant response rating (0 to 100), Downy Brome” value (downy brome; Rate 16 g/ha) of the same compound?
A: The value was 20.

Q: And the “Plant response rating, Rape” value (rape; 62 g/ha)?
A: Its value is 50.

Q: What about the “Plant response rating, Rape” value (rape; 250 g/ha) of the same compound?
A: The value was 90.

Q: What about the “Plant response rating (0 to 100), Rape” value (rape; Rate 4 g/ha) of the same compound?
A: The value was 30.

Q: And the “Plant response rating (0 to 100), Rape” value (rape; Rate 16 g/ha)?
A: Its value is 30.

Q: And the “Plant response rating Ryegrass” value (ryegrass; 62 g/ha)?
A: The value was 30.

Q: What about the “Plant response rating Ryegrass” value (ryegrass; 250 g/ha) of the same compound?
A: Its value is 50.

Q: And the “Plant response rating (0 to 100), Ryegrass” value (ryegrass; Rate 4 g/ha)?
A: The value was 10.

Q: And the “Plant response rating (0 to 100), Ryegrass” value (ryegrass; Rate 16 g/ha)?
A: The value was 20.

Q: What about the “Plant response rating, Sorghum” value (sorghum [4]; 62 g/ha) of the same compound?
A: Its value is 50.

Q: And the “Plant response rating, Sorghum” value (sorghum [4]; 250 g/ha)?
A: Its value is 70.

Q: And the “Plant response rating (0 to 100), Sorghum” value (sorghum [4]; Rate 4 g/ha)?
A: Its value is 30.

Q: What about the “Plant response rating (0 to 100), Sorghum” value (sorghum [4]; Rate 16 g/ha) of the same compound?
A: Its value is 40.

Q: And the “Plant response rating, Wheat” value (wheat [5]; 62 g/ha)?
A: Its value is 30.

Q: And the “Plant response rating, Wheat” value (wheat [5]; 250 g/ha)?
A: The value was 50.

Q: What about the “Plant response rating (0 to 100), Wheat” value (wheat [5]; Rate 4 g/ha) of the same compound?
A: The value was 10.

Q: And the “Plant response rating (0 to 100), Wheat” value (wheat [5]; Rate 16 g/ha)?
A: The value was 20.

Q: And the “Plant response rating, Wild buckwheat” value (wild buckwheat; 62 g/ha)?
A: Its value is 100.

Q: And the “Plant response rating, Wild buckwheat” value (wild buckwheat; 250 g/ha)?
A: Its value is 100.

Q: And the “Plant response rating (0 to 100), Wild buckwheat” value (wild buckwheat; Rate 4 g/ha)?
A: Its value is 60.

Q: What about the “Plant response rating (0 to 100), Wild buckwheat” value (wild buckwheat; Rate 16 g/ha) of the same compound?
A: The value was 85.

Q: What about the “Plant response rating, Wild oat” value (wild oat [6]; 62 g/ha) of the same compound?
A: The value was 40.

Q: And the “Plant response rating, Wild oat” value (wild oat [6]; 250 g/ha)?
A: Its value is 60.

Q: And the “Plant response rating (0 to 100), Wild oat” value (wild oat [6]; Rate 4 g/ha)?
A: The value was 20.

Q: What about the “Plant response rating (0 to 100), Wild oat” value (wild oat [6]; Rate 16 g/ha) of the same compound?
A: The value was 30.

Q: What about the “Plant response rating (0 to 100), Barnyardgrass 2” value (barnyardgrass; POSTEMERGENCE section, flood test, Rate 4 g/ha) of the same compound?
A: The value was 20.

Q: What about the “Plant response rating (0 to 100), Barnyardgrass 2” value (barnyardgrass; Rate 16 g/ha, under POSTEMERGENCE head (flood test species)) of the same compound?
A: Its value is 40.

Q: And the “Plant response rating Barnyardgrass 2” value (barnyardgrass; 62 g/ha)?
A: The value was 95.

Q: What about the “Plant response rating Barnyardgrass 2” value (barnyardgrass; 250 g/ha) of the same compound?
A: Its value is 100.
